# Reference: US9663536B2, “Inhibitors of human immunodeficiency virus replication” (priority 2013, dated 2017)
# Tested on: recombinant NL-Rluc virus
# Assay: Inhibition of HIV replication (NL-Rluc virus in MT-2 cells, luciferase readout)
# Type: cell-based
# Conditions: Human immunodeficiency virus 1, MT2, 120 h
row,Compound,EC50 [nM]
1,"Cc1nc2cc3nn2c(c1[C@H](OC(C)(C)C)C(=O)O)N1CCC(C)(CC1)OC/C=C/Cc1ccccc1Cc1cnc-3s1 (single isomer, unassigned) [Example 1]",2
2,"Cc1nc2cc3nn2c(c1[C@H](OC(C)(C)C)C(=O)O)N1CCC(C)(CC1)OC/C=C\CCc1ccccc1Cc1cnc-3s1 (single isomer, unassigned) [Example 2]",2
3,"Cc1nc2cc3nn2c(c1[C@H](OC(C)(C)C)C(=O)O)N1CCC(C)(/C=C/CCCCc2cc(F)ccc2Cc2cnc-3s2)CC1 (single isomer, unassigned) [Example 15]",13
4,"Cc1nc2cc3nn2c(c1[C@H](OC(C)(C)C)C(=O)O)N1CCC(C)(/C=C/CCCc2cc(F)ccc2Cc2cnc-3s2)CC1 (single isomer, unassigned) [Example 16]",12
5,"Cc1nc2cc3nn2c(c1[C@H](OC(C)(C)C)C(=O)O)N1CCC(C)(CC/C=C/CCc2cc(F)ccc2Cc2cnc-3s2)CC1 (single isomer, unassigned) [Example 17]",18
6,"Cc1nc2cc3nn2c(c1[C@H](OC(C)(C)C)C(=O)O)N1CCC(C)(C/C=C/CCc2cc(F)ccc2Cc2cnc-3s2)CC1 (single isomer, unassigned) [Example 18]",11
7,"Cc1nc2cc3nn2c(c1[C@H](OC(C)(C)C)C(=O)O)N1CCC(C)(CC/C=C/CCc2ccc(F)cc2Cc2cnc-3s2)CC1 (single isomer, unassigned) [Example 21]",13
8,"Cc1nc2cc3nn2c(c1[C@H](OC(C)(C)C)C(=O)O)N1CCC(C)(CC/C=C\CCc2ccc(F)cc2Cc2cnc-3s2)CC1 (single isomer, unassigned) [Example 22]",35
9,"Cc1nc2cc3nn2c(c1[C@H](OC(C)(C)C)C(=O)O)N1CCC(C)(C/C=C/CCc2ccc(F)cc2Cc2cnc-3s2)CC1 (single isomer, unassigned) [Example 23]",7
10,"Cc1nc2cc3nn2c(c1[C@H](OC(C)(C)C)C(=O)O)N1CCC(C)(CC1)OC/C=C/CCc1cccc(c1)Cc1cnc-3s1 [Example 3, (2S)-2-(tert-Butoxy)-2-[(22E)-4,26-dimethyl-25-oxa-32-thia-1,5,7,8,11-pentaazahexacyclo[24.2.2.1^6,9.1^10,13.1^15,19.0^2,7]tritriaconta-2,4,6(33),8,10,12,15(31),16,18,22-decaen-3-yl]acetic acid]",3
11,"Cc1nc2cc3nn2c(c1[C@H](OC(C)(C)C)C(=O)O)N1CCC(C)(CC1)OCCCCCc1cccc(c1)Cc1cnc-3s1 [Example 4, (2S)-2-(tert-Butoxy)-2-{4,26-dimethyl-25-oxa-32-thia-1,5,7,8,11-pentaazahexacyclo[24.2.2.1^6,9.1^10,13.1^15,19.0^2,7]tritriaconta-2,4,6(33),8,10,12,15(31),16,18-nonaen-3-yl}acetic acid]",22
12,"Cc1nc2cc3nn2c(c1[C@H](OC(C)(C)C)C(=O)O)N1CCC(C)(CC1)OCCCCOc1ccccc1Cc1cnc-3s1 [Example 5, (2S)-2-(tert-Butoxy)-2-{4,27-dimethyl-21,26-dioxa-32-thia-1,5,7,8,11-pentaazahexacyclo[25.2.2.1^6,9.1^10,13.0^2,7.0^15,20]tritriaconta-2,4,6(33),8,10,12,15(20),16,18-nonaen-3-yl}Acetic Acid]",6
13,"Cc1nc2cc3nn2c(c1[C@H](OC(C)(C)C)C(=O)O)N1CCC(C)(CC1)OCCCCOc1ccccc1Cc1cnc-3o1 [Example 6, (2S)-2-(tert-Butoxy)-2-{4,27-dimethyl-21,26,32-trioxa-1,5,7,8,11-pentaazahexacyclo[25.2.2.1^6,9.1^10,13.0^2,7.0^15,20]tritriaconta-2,4,6(33),8,10,12,15(20),16,18-nonaen-3-yl}acetic acid]",4
14,"Cc1nc2cc3nn2c(c1[C@H](OC(C)(C)C)C(=O)O)N1CCC(C)(CC1)OCC=CCOc1ccccc1Cc1cnc-3s1 [Example 7, (2S)-2-(tert-Butoxy)-2-[4,27-dimethyl-21,26-dioxa-32-thia-1,5,7,8,11-pentaazahexacyclo[25.2.2.1^6,9.1^10,13.0^2,7.0^15,20]tritriaconta-2,4,6(33),8,10,12,15(20),16,18,23-decaen-3-yl]acetic acid]",6
15,"Cc1nc2cc3nn2c(c1[C@H](OC(C)(C)C)C(=O)O)N1CCC(C)(CC1)OC/C=C/CCOc1ccccc1Cc1cnc-3s1 [Example 8, (2S)-2-(tert-Butoxy)-2-[(24E)-4,28-dimethyl-21,27-dioxa-33-thia-1,5,7,8,11-pentaazahexacyclo[26.2.2.1^6,9.1^10,13.0^2,7.0^15,20]tetratriaconta-2,4,6(34),8,10,12,15(20),16,18,24-decaen-3-yl]acetic Acid]",8
16,"Cc1nc2cc3nn2c(c1[C@H](OC(C)(C)C)C(=O)O)N1CCC(C)(CC1)OCCCCCOc1ccccc1Cc1cnc-3s1 [Example 9, (2S)-2-(tert-Butoxy)-2-{4,28-dimethyl-21,27-dioxa-33-thia-1,5,7,8,11-pentaazahexacyclo[26.2.2.1^6,9.1^10,13.0^2,7.0^15,20]tetratriaconta-2,4,6(34),8,10,12,15(20),16,18-nonaen-3-yl}acetic acid]",2
17,"Cc1nc2cc3nn2c(c1[C@H](OC(C)(C)C)C(=O)O)N1CCC(C)(CC1)OC/C=C/COc1ccccc1Cc1cnc-3o1 [Example 10, (2S)-2-(tert-Butoxy)-2-[(23E)-4,27-dimethyl-21,26,32-trioxa-1,5,7,8,11-pentaazahexacyclo[25.2.2.1^6,9.1^10,13.0^2,7.0^15,20]tritriaconta-2,4,6(33),8,10,12,15 (20),16,18,23-decaen-3-yl]acetic acid]",2
18,Cc1nc2cc3nn2c(c1[C@H](OC(C)(C)C)C(=O)O)N1CCC(C)(CC1)OCCCC[C@@H](C)Oc1ccccc1Cc1cnc-3s1 [Example 11],3
19,"Cc1nc2cc3nn2c(c1[C@H](OC(C)(C)C)C(=O)O)N1CCC(C)(/C=C/C=C/CCc2ccccc2Cc2cnc-3s2)CC1 [Example 12, (2S)-2-(tert-Butoxy)-2-[(23E,25E)-4,27-dimethyl-32-thia-1,5,7,8,11-pentaazahexacyclo[25.2.2.1^6,9.1^10,13.0^2,7.0^15,20]tritriaconta-2,4,6(33),8,10,12,15(20),16,18,23,25-undecaen-3-yl]acetic acid]",8
20,"Cc1nc2cc3nn2c(c1[C@H](OC(C)(C)C)C(=O)O)N1CCC(C)(/C=C/CCCCc2ccccc2Cc2cnc-3s2)CC1 [Example 13, (2S)-2-(tert-Butoxy)-2-[(25E)-4,27-dimethyl-32-thia-1,5,7,8,11-pentaazahexacyclo[25.2.2.1^6,9.1^10,13.0^2,7.0^15,20]tritriaconta-2,4,6(33),8,10,12,15(20),16,18,25-decaen-3-yl]acetic acid]",12
21,"Cc1nc2cc3nn2c(c1[C@H](OC(C)(C)C)C(=O)O)N1CCC(C)(CCCCCCc2ccccc2Cc2cnc-3s2)CC1 [Example 14, (2S)-2-(tert-Butoxy)-2-{4,27-dimethyl-32-thia-1,5,7,8,11-pentaazahexacyclo[25.2.2.1^6,9.1^10,13.0^2,7.0^15,20]tritriaconta-2,4,6(33),8,10,12,15(20),16,18-nonaen-3-yl}acetic acid]",41
22,"Cc1nc2cc3nn2c(c1[C@H](OC(C)(C)C)C(=O)O)N1CCC(C)(CC/C=C/C[C@@H](C)Oc2cc(F)ccc2Cc2cnc-3s2)CC1 [Example 19, (2S)-2-(tert-Butoxy)-2-[(22R,24E)-18-fluoro-4,22,28-trimethyl-21-oxa-33-thia-1,5,7,8,11-pentaazahexacyclo[26.2.2.1^6,9.1^10,13.0^2,7.0^15,20]tetratriaconta-2,4,6(34),8,10,12,15(20),16,18,24-decaen-3-yl]acetic acid]",17
23,"Cc1nc2cc3nn2c(c1[C@H](OC(C)(C)C)C(=O)O)N1CCC(C)(CC/C=C\C[C@@H](C)Oc2cc(F)ccc2Cc2cnc-3s2)CC1 [Example 20, (2S)-2-(tert-Butoxy)-2-[(22R,24Z)-18-fluoro-4,22,28-trimethyl-21-oxa-33-thia-1,5,7,8,11-pentaazahexacyclo[26.2.2.1^6,9.1^10,13.0^2,7.0^15,20]tetratriaconta-2,4,6(34),8,10,12,15(20),16,18,24-decaen-3-yl]acetic acid]",32
24,"Cc1nc2cc3nn2c(c1[C@H](OC(C)(C)C)C(=O)O)N1CCC(C)(CC/C=C/COc2ccccc2Cc2cnc-3s2)CC1 [Example 24, (2S)-2-(tert-Butoxy)-2-[(23E)-4,27-dimethyl-21-oxa-32-thia-1,5,7,8,11-pentaazahexacyclo[25.2.2.1^6,9.1^10,13.0^2,7.0^15,20]tritriaconta-2,4,6(33),8,10,12,15(20),16,18,23-decaen-3-yl]acetic Acid]",11
25,"Cc1nc2cc3nn2c(c1[C@H](OC(C)(C)C)C(=O)O)N1CCC(C)(CC1)OCCCCOc1ccccc1Cc1cnn-3c1 [Example 25, (2S)-2-(tert-Butoxy)-2-{4,27-dimethyl-21,26-dioxa-1,5,7,8,10,11-hexaazahexacyclo[25.2.2.1^6,9.1^10,13.0^2,7.0^15,20]tritriaconta-2,4,6(33),8,11,13(32),15(20),16,18-nonaen-3-yl}acetic acid]",5
26,"Cc1nc2cc3nn2c(c1[C@H](OC(C)(C)C)C(=O)O)N1CCC(C)(CC1)OC/C=C/COc1ccccc1Cc1cnn-3c1 [Example 26, (2S)-2-(tert-Butoxy)-2-[(23E)-4,27-dimethyl-21,26-dioxa-1,5,7,8,10,11-hexaazahexacyclo[25.2.2.1^6,9.1^10,13.0^2,7.0^15,20]tritriaconta-2,4,6(33),8,11,13(32),15(20),16,18,23-decaen-3-yl]acetic acid]",2
27,"Cc1nc2cc3nn2c(c1[C@H](OC(C)(C)C)C(=O)O)N1CCC(C)(CC1)OC/C=C/COc1c(F)cccc1Cc1cnn-3c1 [Example 27, (2S)-2-(tert-Butoxy)-2-[(23E)-19-fluoro-4,27-dimethyl-21,26-dioxa-1,5,7,8,10,11-hexaazahexacyclo[25.2.2.1^6,9.1^10,13.0^2,7.0^15,20]tritriaconta-2,4,6(33),8,11,13(32),15(20),16,18,23-decaen-3-yl]acetic acid]",48
28,"Cc1nc2cc3nn2c(c1[C@H](OC(C)(C)C)C(=O)O)N1CCC(C)(CC1)OCCCCOc1c(F)cccc1Cc1cnn-3c1 [Example 28, (2S)-2-(tert-Butoxy)-2-{19-fluoro-4,27-dimethyl-21,26-dioxa-1,5,7,8,10,11-hexaazahexacyclo[25.2.2.1^6,9.1^10,13.0^2,7.0^15,20]tritriaconta-2,4,6(33),8,11,13(32),15(20),16,18-nonaen-3-yl}acetic acid]",11
